The inhibition is the relative decrease from the control value, in per cent.

Experiment [1] concerns the target T1, RET (Homo sapiens, UniProt P07949).
T1 construct: endogenous in cells; host or cells: HL60 cells
Briefly: Kinobeads competition binding, HL60 cell lysate. Conditions: 10 μM free compound. Here is the method:
(§1) To one aliquot of cell lysate 10 μM of the free compound (FIG. 3, CZC31326) was added and allowed to bind to proteins in the lysate. Then the affinity matrix with the immobilized compound (Example 1) was added to capture proteins that were not interacting with the previously added free compound. Beads were separated from the lysate and bead bound proteins were eluted in SDS sample buffer and subsequently separated by SDS-Polyacrylamide gel electrophoresis (FIG. 4). Suitable gel bands were cut out and subjected to in-gel proteolytic digestion with trypsin. The second lysate aliquot was processed identically, however no free compound was added (DMSO solvent control). Peptides originating from samples 1 and 2 were labeled with iTRAQ reagents (iTRAQ 114 and iTRAQ 117) and the combined samples were analyzed with a nano-flow liquid chromatography system coupled online to a tandem mass spectrometer (LC-MS/MS) experiment followed by iTRAQ reporter ion quantification in the MS/MS spectra (Ross et al., 2004. Mol. Cell. Proteomics 3(12):1154-1169). Further experimental protocols can be found in WO2006/134056 and a previous publication (Bantscheff et al., 2007. Nature Biotechnology 25, 1035-1044). Sepharose-beads with the immobilized compound (100 μl beads per pull-down experiment) were equilibrated in lysis buffer and incubated with a cell lysate sample containing 50 mg of protein on an end-over-end shaker (Roto Shake Genie, Scientific Industries Inc.) for 2 hours at 4° C. Beads were collected, transferred to Mobicol-columns (MoBiTech 10055) and washed with 10 ml lysis buffer containing 0.4% NP40 detergent, followed by 5 ml lysis buffer containing 0.2% detergent. To elute bound proteins, 60 μl 2×SDS sample buffer was added to the column. The column was incubated for 30 minutes at 50° C. and the eluate was transferred to a siliconized microfuge tube by centrifugation. Proteins were then alkylated with 108 mM iodoacetamid. Proteins were then separated by SDS-Polyacrylamide electrophoresis (SDS-PAGE). The peptide extracts of samples treated with 10 μM of free compound (CZC31326) and the solvent control (0.5% DMSO) were treated with different variants of the isobaric tagging reagent (iTRAQ Reagents Multiplex Kit, part number 4352135, Applied Biosystems, Foster City, Calif., USA). The iTRAQ reagents are a set of multiplexed, amine-specific, stable isotope reagents that can label peptides on amino groups in up to four different biological samples enabling simultaneous identification and quantitation of peptides. The iTRAQ reagents were used according to instructions provided by the manufacturer. The samples were resuspended in 10 μl 50 mM TEAB solution, pH 8.5 and 10 μl ethanol were added. The iTRAQ reagent was dissolved in 120 μl ethanol and 10 μl of reagent solution were added to the sample. The labeling reaction was performed at room temperature for one hour on a horizontal shaker and stopped by adding 5 μl of 100 mM TEAB and 100 mM glycine in water. The two labeled sampled were then combined, dried in a vacuum centrifuge and resuspended in 10 μl of 0.1% formic acid in water. Relative protein quantitation was performed using peak areas of iTRAQ reporter ion signals essentially as described in an earlier publication (Bantscheff et al., 2007. Nature Biotechnology 25, 1035-1044).

Experiment [2] addresses T2, CRK7 (Homo sapiens, UniProt Q9NYV4).
T2 construct: endogenous in cells; host or cells: HL60 (DSMZ ACC3)
Kind of experiment: Kinobeads competition binding, HL60 cell lysate. To be noted: 10 μM free compound. As to the method:
as §1

The target of experiment [3] is T3, CLK1 (Homo sapiens, UniProt P49759).
T3 construct: endogenous in cells; host or cells: HL60 cells
T3 sequence (P49759 whole entry): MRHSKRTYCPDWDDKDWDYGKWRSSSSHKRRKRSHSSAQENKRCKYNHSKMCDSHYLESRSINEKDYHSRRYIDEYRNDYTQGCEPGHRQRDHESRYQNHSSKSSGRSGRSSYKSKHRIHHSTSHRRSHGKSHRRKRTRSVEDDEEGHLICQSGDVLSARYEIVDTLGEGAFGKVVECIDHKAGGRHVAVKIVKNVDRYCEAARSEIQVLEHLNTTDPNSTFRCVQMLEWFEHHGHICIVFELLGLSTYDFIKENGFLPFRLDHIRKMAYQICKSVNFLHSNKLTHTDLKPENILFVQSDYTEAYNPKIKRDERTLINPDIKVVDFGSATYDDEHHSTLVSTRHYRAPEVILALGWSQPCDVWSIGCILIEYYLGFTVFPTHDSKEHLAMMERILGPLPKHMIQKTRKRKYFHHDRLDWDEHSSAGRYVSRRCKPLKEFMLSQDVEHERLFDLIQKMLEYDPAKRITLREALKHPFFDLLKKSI
Briefly: Kinobeads competition binding, HL60 cell lysate. To be noted: 10 μM free compound. Here is the method: as §1

For experiment [4], the target named is T4, PKCb (Homo sapiens, UniProt P05771).
T4 construct: endogenous in cells; host or cells: HL60
T4 sequence (P05771 whole entry): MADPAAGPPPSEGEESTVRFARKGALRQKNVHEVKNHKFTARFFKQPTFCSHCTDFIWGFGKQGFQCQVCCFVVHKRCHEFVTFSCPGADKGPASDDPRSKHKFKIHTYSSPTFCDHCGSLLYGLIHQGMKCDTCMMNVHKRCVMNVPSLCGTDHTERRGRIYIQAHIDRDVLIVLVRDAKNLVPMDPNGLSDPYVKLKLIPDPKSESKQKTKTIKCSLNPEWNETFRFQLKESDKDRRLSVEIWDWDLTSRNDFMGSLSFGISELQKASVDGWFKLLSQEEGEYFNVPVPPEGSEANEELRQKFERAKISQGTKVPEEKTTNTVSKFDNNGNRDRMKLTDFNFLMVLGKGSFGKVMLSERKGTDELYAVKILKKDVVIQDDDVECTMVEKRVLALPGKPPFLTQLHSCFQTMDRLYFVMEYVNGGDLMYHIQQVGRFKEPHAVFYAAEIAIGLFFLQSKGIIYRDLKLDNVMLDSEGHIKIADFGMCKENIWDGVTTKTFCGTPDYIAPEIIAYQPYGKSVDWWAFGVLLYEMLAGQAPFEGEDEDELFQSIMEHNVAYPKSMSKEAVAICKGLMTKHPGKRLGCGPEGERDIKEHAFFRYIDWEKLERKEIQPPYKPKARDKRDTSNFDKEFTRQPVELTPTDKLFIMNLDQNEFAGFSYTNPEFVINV
Briefly: Kinobeads competition binding, HL60 cell lysate. Conditions: 10 μM free compound. Here is the method: as §1

The target in experiment [5] is T5, HIPK1 (Homo sapiens, UniProt Q86Z02).
T5 construct: endogenous in cells; host or cells: HL60
T5 sequence (Q86Z02 whole entry): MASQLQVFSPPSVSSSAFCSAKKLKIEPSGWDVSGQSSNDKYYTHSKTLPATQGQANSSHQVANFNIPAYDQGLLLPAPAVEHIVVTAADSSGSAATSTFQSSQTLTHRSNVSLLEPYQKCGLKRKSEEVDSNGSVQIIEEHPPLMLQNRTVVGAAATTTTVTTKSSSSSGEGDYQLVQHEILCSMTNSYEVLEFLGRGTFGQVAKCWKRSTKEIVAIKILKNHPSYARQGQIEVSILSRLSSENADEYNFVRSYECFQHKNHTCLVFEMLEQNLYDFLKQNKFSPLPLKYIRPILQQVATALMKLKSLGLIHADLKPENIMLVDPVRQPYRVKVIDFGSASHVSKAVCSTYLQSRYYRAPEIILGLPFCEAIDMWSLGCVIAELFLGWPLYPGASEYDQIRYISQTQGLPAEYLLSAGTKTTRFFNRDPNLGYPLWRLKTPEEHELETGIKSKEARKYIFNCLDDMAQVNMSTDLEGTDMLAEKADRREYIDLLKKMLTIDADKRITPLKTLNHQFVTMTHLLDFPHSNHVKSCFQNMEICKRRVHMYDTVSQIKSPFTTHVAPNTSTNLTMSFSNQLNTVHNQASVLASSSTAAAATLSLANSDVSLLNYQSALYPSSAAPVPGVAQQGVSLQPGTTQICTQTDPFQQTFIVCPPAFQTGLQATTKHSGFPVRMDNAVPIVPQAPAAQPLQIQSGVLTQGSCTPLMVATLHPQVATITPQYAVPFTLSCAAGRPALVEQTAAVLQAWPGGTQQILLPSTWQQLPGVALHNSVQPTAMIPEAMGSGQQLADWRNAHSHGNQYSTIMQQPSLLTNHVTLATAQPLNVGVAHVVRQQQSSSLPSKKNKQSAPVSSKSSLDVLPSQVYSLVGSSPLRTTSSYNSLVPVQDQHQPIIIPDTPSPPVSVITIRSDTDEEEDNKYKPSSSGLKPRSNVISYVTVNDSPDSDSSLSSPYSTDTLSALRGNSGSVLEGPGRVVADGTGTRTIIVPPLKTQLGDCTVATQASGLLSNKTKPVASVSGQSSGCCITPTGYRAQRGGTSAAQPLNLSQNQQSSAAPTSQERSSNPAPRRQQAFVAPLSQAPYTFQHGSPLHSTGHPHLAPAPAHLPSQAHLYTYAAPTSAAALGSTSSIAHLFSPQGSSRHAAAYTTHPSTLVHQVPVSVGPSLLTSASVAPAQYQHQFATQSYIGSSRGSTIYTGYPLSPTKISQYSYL
Briefly: Kinobeads competition binding, HL60 cell lysate. To be noted: 10 μM free compound. As to the method:
as §1

In experiment [6] the target is T6, ACK (Homo sapiens, UniProt Q07912).
T6 construct: endogenous in cells; host or cells: HL60 cells
Briefly: Kinobeads competition binding, HL60 cell lysate. Conditions: 10 μM free compound. As to the method: as §1

The target in experiment [7] is T7, LCK (Homo sapiens, UniProt P06239).
T7 construct: Identified kinases with CZC31326 from HL60 lysate; endogenous in cells; host or cells: HL60
T7 sequence (P06239 whole entry): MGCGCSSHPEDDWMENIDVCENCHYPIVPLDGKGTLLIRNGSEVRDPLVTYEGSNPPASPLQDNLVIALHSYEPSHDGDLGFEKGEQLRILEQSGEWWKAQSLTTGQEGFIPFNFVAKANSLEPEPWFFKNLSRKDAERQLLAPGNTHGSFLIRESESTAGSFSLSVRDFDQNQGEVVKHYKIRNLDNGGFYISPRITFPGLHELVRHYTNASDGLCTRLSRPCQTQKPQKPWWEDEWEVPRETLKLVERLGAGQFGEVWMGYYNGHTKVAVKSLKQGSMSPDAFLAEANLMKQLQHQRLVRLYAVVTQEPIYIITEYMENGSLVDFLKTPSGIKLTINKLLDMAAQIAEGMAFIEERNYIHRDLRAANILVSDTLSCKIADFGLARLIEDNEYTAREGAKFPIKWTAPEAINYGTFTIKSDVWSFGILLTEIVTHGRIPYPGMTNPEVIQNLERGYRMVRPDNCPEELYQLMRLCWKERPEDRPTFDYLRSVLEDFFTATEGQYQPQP
Briefly: Kinobeads competition binding, HL60 cell lysate. To be noted: 10 μM free compound. As to the method:
as §1

Experiment [8] concerns the target T8, EphB6 (Homo sapiens, UniProt O15197).
T8 construct: endogenous in cells; host or cells: HL60 (DSMZ ACC3)
Kind of experiment: Kinobeads competition binding, HL60 cell lysate. To be noted: 10 μM free compound. As to the method: as §1

In experiment [9] the target is AAK1 (Homo sapiens, UniProt Q2M2I8). Briefly: Kinobeads competition binding, L-363 cell lysate. On the set-up: capturing and identification of kinases from L-363 cell lysate; endogenous in cells; host or cells: L-363 cells, treated with MG132 before harvest. To be noted: 10 μM free compound, L-363 lysate. Here is the method: To one aliquot of cell lysate 10 μM of the free compound (FIG. 3, CZC31326) was added and allowed to bind to proteins in the lysate. Then the affinity matrix with the immobilized compound was added to capture proteins that were not interacting with the previously added free compound. Beads were separated from the lysate and bead bound proteins were eluted in SDS sample buffer and subsequently separated by SDS-Polyacrylamide gel electrophoresis (FIG. 8). Suitable gel bands were cut out and subjected to in-gel proteolytic digestion with trypsin. The second lysate aliquot was processed identically, however no free compound was added (DMSO solvent control). Peptides originating from samples 1 and 2 were labeled with iTRAQ reagents (iTRAQ 114 and iTRAQ 117) and the combined samples were analyzed with a nano-flow liquid chromatography system coupled online to a tandem mass spectrometer (LC-MS/MS) experiment followed by iTRAQ reporter ion quantification in the MS/MS spectra as described in Example 2.
For this experiment the human plasma cell leukaemia line L-363 was used (German Collection of Microorganisms and Cell Cultures, DSMZ number ACC49, Braunschweig, Germany). Cells were treated for three hours with 20 μM of the proteasome inhibitor MG132 (Z-Leu-Leu-Leu-al, Sigma C2211) prior to cell harvesting.

T1 sequence (P07949 29-1114): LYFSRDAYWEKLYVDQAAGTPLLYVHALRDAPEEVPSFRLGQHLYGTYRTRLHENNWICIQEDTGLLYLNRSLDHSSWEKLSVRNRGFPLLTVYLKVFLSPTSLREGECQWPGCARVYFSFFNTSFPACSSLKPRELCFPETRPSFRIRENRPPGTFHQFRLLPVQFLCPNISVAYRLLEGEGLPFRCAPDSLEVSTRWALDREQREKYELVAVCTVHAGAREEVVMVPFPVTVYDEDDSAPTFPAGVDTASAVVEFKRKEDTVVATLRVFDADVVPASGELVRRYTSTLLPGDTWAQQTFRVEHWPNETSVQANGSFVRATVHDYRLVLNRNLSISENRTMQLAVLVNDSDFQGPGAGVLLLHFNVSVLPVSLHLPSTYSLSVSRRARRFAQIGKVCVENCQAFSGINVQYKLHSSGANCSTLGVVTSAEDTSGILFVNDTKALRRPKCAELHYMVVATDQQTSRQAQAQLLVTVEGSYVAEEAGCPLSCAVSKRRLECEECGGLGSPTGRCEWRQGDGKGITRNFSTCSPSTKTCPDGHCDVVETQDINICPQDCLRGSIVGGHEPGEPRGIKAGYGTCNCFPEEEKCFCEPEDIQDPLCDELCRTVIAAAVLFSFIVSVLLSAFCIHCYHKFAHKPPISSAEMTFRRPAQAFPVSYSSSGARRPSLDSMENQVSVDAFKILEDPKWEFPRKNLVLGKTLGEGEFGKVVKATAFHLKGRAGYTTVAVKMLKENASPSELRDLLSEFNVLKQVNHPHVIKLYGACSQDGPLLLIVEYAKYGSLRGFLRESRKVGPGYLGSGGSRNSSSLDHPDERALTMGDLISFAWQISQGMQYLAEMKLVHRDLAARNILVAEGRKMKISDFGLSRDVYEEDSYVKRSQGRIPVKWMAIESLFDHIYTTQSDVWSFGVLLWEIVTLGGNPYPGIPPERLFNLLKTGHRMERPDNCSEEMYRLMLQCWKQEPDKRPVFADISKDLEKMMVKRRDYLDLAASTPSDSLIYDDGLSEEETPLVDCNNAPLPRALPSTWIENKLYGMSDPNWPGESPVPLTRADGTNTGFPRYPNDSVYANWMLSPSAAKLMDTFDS
T8 sequence (O15197 32-1021): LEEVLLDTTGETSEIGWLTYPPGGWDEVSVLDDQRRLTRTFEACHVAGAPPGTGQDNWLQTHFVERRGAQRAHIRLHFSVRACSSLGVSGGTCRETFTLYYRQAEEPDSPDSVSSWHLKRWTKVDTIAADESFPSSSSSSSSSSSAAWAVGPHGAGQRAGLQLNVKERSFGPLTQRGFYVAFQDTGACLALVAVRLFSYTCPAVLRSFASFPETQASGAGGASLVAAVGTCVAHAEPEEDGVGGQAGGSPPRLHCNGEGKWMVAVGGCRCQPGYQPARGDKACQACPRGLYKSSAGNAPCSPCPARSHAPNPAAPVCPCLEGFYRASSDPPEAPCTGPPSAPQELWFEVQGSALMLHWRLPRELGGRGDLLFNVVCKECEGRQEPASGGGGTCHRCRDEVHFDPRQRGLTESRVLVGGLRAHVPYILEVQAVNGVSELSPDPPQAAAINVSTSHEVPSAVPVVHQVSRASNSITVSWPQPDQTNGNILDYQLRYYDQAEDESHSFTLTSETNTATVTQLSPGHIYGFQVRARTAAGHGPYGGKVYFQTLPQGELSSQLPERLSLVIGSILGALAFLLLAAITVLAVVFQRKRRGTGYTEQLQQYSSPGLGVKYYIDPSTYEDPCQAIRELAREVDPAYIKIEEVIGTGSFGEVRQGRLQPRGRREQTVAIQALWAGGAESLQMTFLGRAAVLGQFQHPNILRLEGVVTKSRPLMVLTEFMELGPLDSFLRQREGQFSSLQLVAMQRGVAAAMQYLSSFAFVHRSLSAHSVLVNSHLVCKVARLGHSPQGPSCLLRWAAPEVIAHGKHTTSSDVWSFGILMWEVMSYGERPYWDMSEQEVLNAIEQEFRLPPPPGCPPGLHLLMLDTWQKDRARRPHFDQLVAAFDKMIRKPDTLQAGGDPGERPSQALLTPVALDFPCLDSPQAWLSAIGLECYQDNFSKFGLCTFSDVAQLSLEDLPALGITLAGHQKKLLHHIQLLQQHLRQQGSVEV

Take `CS(=O)(=O)Nc1ccccc1Nc1nc(Nc2cccc(OCCN)c2)ncc1Cl` [CZC31326, N-(2-(2-(3-(2-aminoethoxy)phenylamino)-5-chloropyrimidin-4-ylamino)phenyl)methanesulfonamide]: the inhibition at 10 µM in experiment [1] was 97.1%; in [3] it was 97.4%; in experiment [4], 97.3%; in [5], 97.1%; in experiment [6] it was 93.6%; in experiment [7], 86.8%. Moreover, the inhibition at 10 µM came to 93.6% in experiment [8] and 97.4% in [9]. In [2], this compound came in with a Competition % of 92.1%.

These data come from patent US20120270237A9, “METHODS FOR THE IDENTIFICATION OF KINASE INTERACTING MOLECULES AND FOR THE PURIFICATION OF KINASE PROTEINS” (Cellzone AG, priority 2009, published 2012).
